Read-outs that look alike come from different tables or passages of the source.
Experiments:
ALDH1A1 [1] = target: T1, ALDH1A1 (Homo sapiens, UniProt P00352); test: KD evaluation by probe fluorescence (Tecan SPARK); assay type: binding; conditions: probe fixed at 10 μM, isoenzyme 100 μM to 1 μM
T1 construct: His-tag; made in house; host or cells: bacterial cells
T1 sequence (P00352 1-501): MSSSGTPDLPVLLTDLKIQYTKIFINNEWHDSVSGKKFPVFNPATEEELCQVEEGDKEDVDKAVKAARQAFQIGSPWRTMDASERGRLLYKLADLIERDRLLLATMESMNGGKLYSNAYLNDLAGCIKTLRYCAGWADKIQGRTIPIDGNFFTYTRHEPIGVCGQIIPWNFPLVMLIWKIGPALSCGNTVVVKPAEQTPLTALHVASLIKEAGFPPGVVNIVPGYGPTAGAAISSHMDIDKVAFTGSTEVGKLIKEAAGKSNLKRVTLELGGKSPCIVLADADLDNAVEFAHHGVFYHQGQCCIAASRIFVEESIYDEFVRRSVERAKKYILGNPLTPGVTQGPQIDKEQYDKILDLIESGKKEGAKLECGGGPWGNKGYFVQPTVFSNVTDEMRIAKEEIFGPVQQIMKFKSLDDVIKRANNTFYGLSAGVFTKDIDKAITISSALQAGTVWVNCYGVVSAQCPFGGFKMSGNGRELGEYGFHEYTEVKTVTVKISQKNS
Procedure: (§1) A common protocol to express and purify all three members of the ALDHIA subfamily has been optimized. Briefly, induced cells, collected by centrifugation, were re-suspended in an appropriate volume of lysis buffer (50 mM Na2HPO4, 300 mM NaCl, 1 mM β-mercaptoethanol, 20 mM imidazole, pH 7.5) added of benzonase nuclease (250 U/μL) and Protease inhibitor cocktail from SIGMA. After ultracentrifugation, the clarified sample was purified by a His-tag affinity chromatography followed by size-exclusion chromatography, using an AKTA FPLC system, at 4° C. To evaluate the purity and homogeneity of the protein, after each purification step, eluted d fractions were analyzed by SDS-PAGE and the protein quantification was always determined by Bradford protein assay.
(§2) KD evaluation: on a Tecan—SPARK, probe 14 and 13 were tested at a fixed concentration of 10 μM. All the isoenzymes were tested in wide range of concentrations (from 100 μM to 1 μM). The analysis was settled with a BW of 20, monitoring the Em wavelength in range comprised between 520 and 535 nm for probe 14 and 520 and 580 nm for probe 13. The Ex was fixed at 420 nm for probe 14 and 440 nm for probe 13. The test was performed in quadruplicate with all the three isoenzymes. The recipe of the buffer reaction was the same as described before.

ALDH1A3 [2] = target: T2, ALDH1A3 (Homo sapiens, UniProt P47895); test: KD evaluation by probe fluorescence (Tecan SPARK); assay type: binding
T2 construct: His-tag; made in house; host or cells: bacterial cells
T2 sequence (P47895 1-512): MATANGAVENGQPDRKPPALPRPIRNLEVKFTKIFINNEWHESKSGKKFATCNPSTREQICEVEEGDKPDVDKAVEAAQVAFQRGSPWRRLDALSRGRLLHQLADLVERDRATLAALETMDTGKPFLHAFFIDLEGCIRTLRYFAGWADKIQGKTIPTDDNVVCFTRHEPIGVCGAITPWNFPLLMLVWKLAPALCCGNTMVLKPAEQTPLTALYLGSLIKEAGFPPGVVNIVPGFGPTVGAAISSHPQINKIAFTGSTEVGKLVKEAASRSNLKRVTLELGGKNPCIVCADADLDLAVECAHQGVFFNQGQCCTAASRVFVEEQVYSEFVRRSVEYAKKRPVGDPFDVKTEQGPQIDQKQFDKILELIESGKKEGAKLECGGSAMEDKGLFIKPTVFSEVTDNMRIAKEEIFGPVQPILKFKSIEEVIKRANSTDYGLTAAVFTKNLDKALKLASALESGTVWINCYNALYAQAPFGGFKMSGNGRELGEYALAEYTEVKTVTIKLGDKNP
Procedure: as §1, §2

ALDH1A1 [3] = target: T1, ALDH1A1; test: IC50 evaluation, NADH formation at 340 nm (Tecan SUNRISE); assay type: biochemical
Procedure: as §1
(§3) IC50 evaluation: on a Tecan—SUNRISE, probe 13 was tested in a serial dilution series from 200 μM to 3, 125 μM, against all the three isoenzymes. The recipe of reaction buffer was: 20 mM Tris HCl pH=8, 150 mM KCl, 1 mM B-mercaptoethanol, 500 μM NAD^+, 15% DMSO fixed, 20 mM acetaldehyde and 2.7 μM each isoenzyme. The analysis was conducted measuring the NADH formation, that has a specific absorbance wavelength (340 nm). The test was performed in triplicate with all the three isoenzymes.

ALDH1A2 [4] = target: T3, ALDH1A2 (Homo sapiens, UniProt O94788); test: as above; assay type: biochemical; conditions: 20 mM acetaldehyde, 500 μM NAD+, 15% DMSO, 2.7 μM isoenzyme
T3 construct: His-tag; made in house; host or cells: bacterial cells
T3 sequence (O94788 1-518): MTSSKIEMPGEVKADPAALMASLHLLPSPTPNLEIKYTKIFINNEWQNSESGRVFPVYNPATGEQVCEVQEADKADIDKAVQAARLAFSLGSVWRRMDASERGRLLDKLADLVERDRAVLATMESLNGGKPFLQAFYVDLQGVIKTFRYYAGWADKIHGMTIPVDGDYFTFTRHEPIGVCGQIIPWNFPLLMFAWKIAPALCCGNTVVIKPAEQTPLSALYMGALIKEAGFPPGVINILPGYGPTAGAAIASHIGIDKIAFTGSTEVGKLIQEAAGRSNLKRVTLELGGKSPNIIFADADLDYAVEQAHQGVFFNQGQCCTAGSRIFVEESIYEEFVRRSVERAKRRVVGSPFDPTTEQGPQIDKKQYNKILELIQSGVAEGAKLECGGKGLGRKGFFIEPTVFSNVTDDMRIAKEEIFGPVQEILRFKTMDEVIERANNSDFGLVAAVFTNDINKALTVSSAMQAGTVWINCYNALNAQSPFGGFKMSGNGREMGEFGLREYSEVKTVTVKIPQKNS
Procedure: as §1, §3

ALDH1A3 [5] = target: T2, ALDH1A3; test: as above; assay type: biochemical
Procedure: as §1, §3

ALDH1A2 [6] = target: T3, ALDH1A2; test: KD evaluation by probe fluorescence (Tecan SPARK); assay type: binding; conditions: probe fixed at 10 μM, isoenzyme 100 μM to 1 μM
Procedure: as §1, §2

ALDH1A3 [7] = target: T2, ALDH1A3; test: Fluorescence of probes in buffer and in complex with the isoenzymes (Tecan SPARK); assay type: binding; conditions: in complex with the three isoenzymes, in particular ALDH1A3
Procedure: All five compounds were dissolved in DMSO (100%) to obtain two different initial stocks, one at 10 mM and a second one at 1 mM. […] The assay can be executed at a maximum DMSO percentage of 15%. The maximum probe concentration tested was 500 uM—15% DMSO. All the compounds were tested using a Tecan—SPARK, to analyze their absorbance, excitation and emission wavelength. Based on the literature, the absorbance of the curcumin by itself is comprised between 420 and 425 nm. At first, we measured the absorbance, and from those values, we performed a 3D analysis to highlights the correct Ex and Em wavelengths. To avoid any possible background in the fluorescence signal we performed a screening of every possible buffer used in our assays.

[8] = substrate: COc1cc(/C=C/C(=O)/C=C(O)/C=C/c2ccc(OCc3cn(CCOc4ccc(C=O)cc4)nn3)c(OC)c2)ccc1O; test: KM evaluation, compound as possible substrate, NADH formation; assay type: biochemical, human; conditions: 5% DMSO, pH 7.5
Procedure: as §1
KM evaluation: on a Tecan—SUNRISE, due to the inconsistency of result of the KD evaluation with probe 13 and to its chemistry nature (benzaldehyde), we performed an analysis to evaluate this compound possible substrate. The compound was tested in a serial dilution from 300 to 3.125 μM, at 5% DMSO. The analysis was conducted measuring the NADH formation, that has a specific absorbance wavelength (340 nm). The recipe of the buffer reaction was the same as described before. The assay was performed only for ALDH1A1 and ALDH1A2. The test was performed in triplicate with all the three isoenzymes.

[9] = ALDH1A3, probe fixed at 10 μM, isoenzyme 100 μM to 1 μM, read-out: KD
[10] = ALDH1A1, 20 mM acetaldehyde, 500 μM NAD+, 15% DMSO, 2.7 μM isoenzyme, read-out: IC50
[11] = ALDH1A3, 20 mM acetaldehyde, 500 μM NAD+, 15% DMSO, 2.7 μM isoenzyme, read-out: IC50

Question: For `CCOC(=O)Cn1cc(COc2ccc(C=CC(=O)C=C(O)C=Cc3ccc(OP(=O)(OCC)OCC)c(OC)c3)cc2OC)nn1` [Compound 17], which Kd (ALDH1A1 [1]) is on record?
Answer: 18.1 µM

Question: And the Kd (ALDH1A3 [2]; [9])?
Answer: 14.9 µM

Question: And the IC50 (ALDH1A1 [3]; [10])?
Answer: 70.1 µM

Question: And the IC50 (ALDH1A2 [4])?
Answer: N.I.

Question: What about the IC50 (ALDH1A3 [5]; [11]) of the same molecule?
Answer: 158 µM

Question: Which results are given for `COc1cc(/C=C/C(O)=C/C(=O)/C=C/c2ccc(N(C)C)cc2)ccc1OCc1cn(CCOc2ccc(C=O)cc2)nn1` [Compound 15]?
Answer: Kd (ALDH1A1 [1]): 23.9 µM; Kd (ALDH1A2 [6]): 8.7 µM; Kd (ALDH1A3 [2]; [9]): 20.4 µM; increase of fluorescence in complex with the isoenzymes (ALDH1A3 [7]): no good result; IC50 (ALDH1A1 [3]; [10]): 28.5 µM; IC50 (ALDH1A2 [4]): N.I.; IC50 (ALDH1A3 [5]; [11]): 5.1 µM

Question: What does the source list for `CCOP(=O)(OCC)Oc1ccc(/C=C/C(=O)/C=C(O)/C=C/c2ccc(OCc3cn(CCOc4ccc(C=O)cc4)nn3)c(OC)c2)cc1OC` [Compound 16]?
Answer: Kd (ALDH1A3 [2]): 55.7 µM; increase of fluorescence in complex with the isoenzymes (ALDH1A3 [7]): no good result; IC50 (ALDH1A1 [3]): 150 µM; IC50 (ALDH1A2 [4]): N.I.; IC50 (ALDH1A3 [5]): 8.5 µM

B1: ALDH1A2 (Homo sapiens) (protein)
chain: T3 sequence (O94788 1-518)
notes: His-tag; made in house; host or cells: bacterial cells
Question: B1 was tested. Which Km ([8]; other: ALDH1A2, 300 to 3.125 μM) did it give?
Answer: 220.0 µM

B2: ALDH1A1 (Homo sapiens) (protein)
chain: T1 sequence (P00352 1-501)
notes: as for B1
Question: How did the Km ([8]; other: ALDH1A1, 300 to 3.125 μM) turn out when B2 was run?
Answer: 255.2 µM

From patent US20250281649A1, “PROBE DIRECTED TO ENZYME ALDH1A3 AND USE THEREOF IN THE DIAGNOSIS OF GLIOBLASTOMA” (Universita' Degli Studi Del Piemonte Orientale "A. Avogadro", priority 2021, published 2025)
